Where two headings read alike, the source gives them in different places.
How the values were obtained:
[1] = In vitro and in vivo safety studies (not detailed)
[2] = target: T1, human DYRK2 isoform 1 (6xHis-tagged) (Homo sapiens, UniProt Q92630); assay: ELISA-based non-radioactive kinase assay, DYRK2; assay type: biochemical
T1 sequence (Q92630 74-601 limits assumed): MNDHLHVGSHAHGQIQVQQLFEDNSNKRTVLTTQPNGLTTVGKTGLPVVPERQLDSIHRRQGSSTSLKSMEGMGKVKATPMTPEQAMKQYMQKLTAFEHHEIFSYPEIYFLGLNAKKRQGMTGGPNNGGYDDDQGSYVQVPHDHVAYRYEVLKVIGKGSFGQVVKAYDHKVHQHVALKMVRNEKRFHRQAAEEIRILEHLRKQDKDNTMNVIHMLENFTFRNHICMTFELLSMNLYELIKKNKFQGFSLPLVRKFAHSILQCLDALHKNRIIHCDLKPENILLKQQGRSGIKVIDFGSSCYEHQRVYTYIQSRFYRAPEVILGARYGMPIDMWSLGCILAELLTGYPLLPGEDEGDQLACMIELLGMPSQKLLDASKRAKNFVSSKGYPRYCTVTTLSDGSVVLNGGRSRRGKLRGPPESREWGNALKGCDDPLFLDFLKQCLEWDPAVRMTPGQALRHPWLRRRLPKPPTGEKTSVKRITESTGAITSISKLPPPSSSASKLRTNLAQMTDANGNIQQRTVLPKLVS
Protocol: DYRK1B was prepared from human DYRK1B isoform p65 as glutathione S-transferase fusion protein, and DYRK2 was prepared from human DYRK2 isoform 1 as 6xHis-tagged protein, as previously described.
For DYRK2, the reactions were performed exactly as described for DYRK1A. For DYRK1B, the assays were similarly conducted but with 30 ng GST-DYRK1B and a kinase reaction time of 60 min.

[3] = Pharmacokinetic studies in C57BL/6 mice (plasma and tissues); assay type: in vivo, mouse; details: for AUC(0-t) / Cmax / Tmax / AUC(0-inf) / half-life / bioavailability: both sexes, C57BL/6, mouse; for bioavailability: read-out: F (absolute bioavailability)
Protocol: To overcome the generally poor PK profile of catechins, we developed a proprietary formulation that allows for the delivery of these drugs in high concentrations for oral (PO) or intranasal (IN) use. Our liquid formulation is based on the solubilizer and penetration enhancer (2-hydroxypropyl)-β-cyclodextrin (HP-β-CD), PEG-400, and water. This vehicle allows us to achieve high drug concentration in dosing solution (up to 20% w/w) when needed. PK studies were conducted for 1c in adult male and female C57BL/6 mice (n = 3/sex/time point) using (1) a single IV dose (5 mg/kg), (2) an IN dose (60 mg/kg, 5 µL of a clear solution/nostril/twice), and (3) a single PO dose (100 mg/kg). We analyzed the concentration of the drug in several tissues, including the brain, lungs, liver, and plasma. We observed that this class of molecules is stable in circulation; however, when the tissues are harvested for bioanalytical work, the drug undergoes rapid degradation, probably because of the direct contact with oxygen and metals, which catalyzes its rapid degradation/oxidation. We were able to stabilize the drug in blood by the immediate addition of ascorbic acid and TCEP [29]; however, the same was not possible with solid organs such as the brain and liver, which need to be collected through surgery and homogenized before any stabilizing agent can be added. Therefore, tissue PK data tend to vary.
C57BL/6J mice were given a single dose of drug via the IN or PO route. […] For PO delivery, we replaced water with saline. The volume for IN delivery was 5 µL/nostril, and the volume used for oral delivery was 10 mL/kg. After sacrifice, blood (500 µL) was collected into K2EDTA microtubes and kept on ice all times (must be centrifuged within 30 min of collection). Blood was centrifuged in EDTA vacuum at 4 °C at 15,000× g for 4 min; ~250 µL of plasma was collected into polyethylene tubes containing 50 µL of AA/TCEP stabilizing solution (20 mM ascorbic acid and 13 mM TCEP in 50 mM K2HPO4 buffer; the pH of the solution was adjusted to 6.5 using 2 M NaOH). Then, 200 µL of the collected plasma was mixed with (1) 24 µL of a solution of 10% ascorbic acid and 0.1% EDTA in 40 mM NaH2PO4; (2) 40 µL of 50 mM sodium phosphate (pH 7.4); (3) 500 units of β-D-glucuronidase type X-A from Escherichia coli (Sigma Chemical Co, St Louis, MO, USA), and (4) 4 units of sulfatase type VIII from abalone entrails (Sigma Chemical Co). The mixture was incubated at 37 °C for 45 min. Plasma was then extracted by the addition of 0.5 mL ACN; the mixture was vortex-mixed for 2 min, then snap-frozen with isopropanol/carbon dioxide dry ice, and the upper layer of ACN was removed. The process was repeated another 2 times. The ACN fractions were pooled into a polyethylene tube kept on ice. The combined fractions were evaporated under a gentle stream of nitrogen at ambient temperature. The residue obtained after evaporation was reconstituted in 200 µL of 75 mM citric acid//25 mM ammonium acetate: ACN (75:25 by vol), and vortexed vigorously for 5 min, and 20 µL of the resulting solution was injected into the LC-MS/MS column.
Drug analysis in tissues: About ~0.4 g of the tissue was homogenized with 1 mL of ice-cold 0.4 M sodium phosphate buffer containing 6 mg of ascorbic acid and 0.5 mg of Na2EDTA (final pH of 6.5). After centrifugation at 4 °C at 15,000× g for 4 min, the supernatant was collected into polyethylene tubes containing 50 µL of the AA/TCEP stabilizing solution. Then 1 U of sulfatase and 250 U of β-glucuronidase were added to the abovementioned homogenized mixture. Samples were incubated at 37 °C for 45 min, then extracted, dried, and resuspended in a manner similar to that for plasma. Samples were then analyzed by LC-MS/MS.

[4] = target: DYRK1A (Rattus norvegicus, UniProt Q63470); assay: ATP competition assay on DYRK1A; assay type: biochemical; details: ATP up to 0.8 mM
[5] = inhaled or intranasal, IN (60 mg/kg), brain
[6] = inhaled or intranasal, IN (60 mg/kg), plasma

## COc1cc(C(=O)O[C@@H]2Cc3c(O)cc(O)cc3O[C@H]2c2cc(O)c(O)c(O)c2)c(F)c(O)c1O [Compound 1c]
[1]
  in vitro and in vivo safety studies, outcome: have not reveled any concerns
[2]
  IC50: 331 nM
[3]; IN (60 mg/kg), brain
  Tlast: 8 h
[3]; IN (60 mg/kg), plasma
  Tlast: 24 h
[3]; PO (100 mg/kg), brain
  Tlast: 24 h
  AUC(0-t): 2390 ng·h/mL
  Cmax: 110 ng/mL
  Tmax: 2 h
[3]; PO (100 mg/kg), plasma
  Tlast: 24 h
  AUC(0-inf): 4280 ng·h/mL
  AUC(0-t): 4170 ng·h/mL
  Cmax: 684 ng/mL
  Tmax: 1 h
  half-life: 4.7 h
[3]; [5]
  AUC(0-t): 116 ng·h/mL
  Cmax: 18 ng/mL
  Tmax: 0.5 h
[3]; [6]
  AUC(0-inf): 16100 ng·h/mL
  AUC(0-t): 15800 ng·h/mL
  Cmax: 2350 ng/mL
  Tmax: 2 h
  half-life: 4.8 h
[3]; plasma, iv, i.v. (5mg/kg)
  AUC(0-inf): 1390 ng·h/mL
  AUC(0-t): 1280 ng·h/mL
  Cmax: 657 ng/mL
  Tmax: 0 h
  half-life: 3.2 h
[3]; plasma, other: intranasal (IN), 60 mg/kg, IN (60 mg/kg), plasma
  bioavailability: 100%
[3]; plasma, po, 100 mg/kg, PO (100 mg/kg), plasma
  bioavailability: ~16%
[3]; i.v. (5mg/kg)
  Tlast: 10 h
[4]
  mode of inhibition with varying ATP: non-ATP-competitive inhibitor
